Assay results reported in patent publication US10000791B2, “Measurement method for human pancreatic lipase activity” (ASAHI KASEI PHARMA CORPORATION, priority 2013, dated 2018).

Test system: human pancreatic lipase
Test: lipase activity measured in control, normal and heparin-administered samples with each reagent (1,2-dioleoyl glycerol, UV method; Liquitech Lipase Color II for verification)
Format: biochemical
Design: lipase activity relative to (1) comparative example NaDCA (Table 1): concentration or dose not given beside the values
Conditions: for lipase activity (Table 1): NaDCA pH 8.15, other bile salts pH 7.0; for lipase activity (Table 2): comparative example pH 8.15, present example pH 7.1, bile acid 40 mmol/L in R-1

C[C@H](CCC(=O)NCC(=O)[O-])[C@H]1CC[C@H]2[C@@H]3[C@H](O)C[C@@H]4C[C@H](O)CC[C@]4(C)[C@H]3CC[C@]12C.[Na+] [NaGCDCA, sodium glycochenodeoxycholate]
sensitivity at pH 7.95 compared with pH 7.0 (NaGCDCA 40 mmol/L in R-1): about 40%
lipase activity (Table 1) (Normal sample 1): 38.1 U/L
lipase activity relative to (1) comparative example NaDCA (Table 1) (Normal sample 1, pH 7.0): 97.5%
lipase activity (Table 1) (Normal sample 2): 75.6 U/L
lipase activity relative to (1) comparative example NaDCA (Table 1) (Normal sample 2, pH 7.0): 79.5%
lipase activity (Table 1) (Normal sample 3): 41.2 U/L
lipase activity relative to (1) comparative example NaDCA (Table 1) (Normal sample 3, pH 7.0): 88.4%
lipase activity (Table 1) (Normal sample 4): 31.7 U/L
lipase activity relative to (1) comparative example NaDCA (Table 1) (Normal sample 4, pH 7.0): 73.0%
lipase activity (Table 1) (Normal sample 5): 28.8 U/L
lipase activity relative to (1) comparative example NaDCA (Table 1) (Normal sample 5, pH 7.0): 70.8%
lipase activity (Table 1) (sample Heparin 1): 30.8 U/L
lipase activity (Table 2) (sample Heparin 1): 47.8 U/L
lipase activity relative to (1) comparative example NaDCA (Table 1) (sample Heparin 1, pH 7.0): 40.1%
lipase activity (Table 1) (sample Heparin 2): 41.3 U/L
lipase activity (Table 2) (sample Heparin 2): 25.9 U/L
lipase activity relative to (1) comparative example NaDCA (Table 1) (sample Heparin 2, pH 7.0): 47.6%
lipase activity (Table 1) (sample Heparin 3): 29.8 U/L
lipase activity (Table 2) (sample Heparin 3): 44.0 U/L
lipase activity relative to (1) comparative example NaDCA (Table 1) (sample Heparin 3, pH 7.0): 26.4%
lipase activity (Table 1) (sample Heparin 4): 31.6 U/L
lipase activity relative to (1) comparative example NaDCA (Table 1) (sample Heparin 4, pH 7.0): 31.2%
lipase activity (Table 1) (sample Heparin 5): 17.8 U/L
lipase activity relative to (1) comparative example NaDCA (Table 1) (sample Heparin 5, pH 7.0): 26.0%
lipase activity (Table 1) (sample Heparin 6): 22.5 U/L
lipase activity relative to (1) comparative example NaDCA (Table 1) (sample Heparin 6, pH 7.0): 32.5%
lipase activity (Table 1) (sample Heparin 7): 51.0 U/L
lipase activity relative to (1) comparative example NaDCA (Table 1) (sample Heparin 7, pH 7.0): 36.9%
lipase activity (Table 1) (sample Heparin 8): 36.6 U/L
lipase activity relative to (1) comparative example NaDCA (Table 1) (sample Heparin 8, pH 7.0): 29.0%
lipase activity (Table 1) (sample Heparin 9): 75.4 U/L
lipase activity relative to (1) comparative example NaDCA (Table 1) (sample Heparin 9, pH 7.0): 44.7%
lipase activity (Table 5) (sample Heparin 31, pH 7.0): 40.7 U/L
lipase activity (Table 5) (sample Heparin 31, pH 7.95): 60.7 U/L
lipase activity (Table 5) (sample Heparin 32, pH 7.0): 32.7 U/L
lipase activity (Table 5) (sample Heparin 32, pH 7.95): 77.0 U/L
lipase activity (Table 1) (sample PRECINORM): 42.3 U/L
lipase activity (Table 5) (sample PRECINORM, pH 7.0): 42.3 U/L
lipase activity relative to (1) comparative example NaDCA (Table 1) (sample PRECINORM, pH 7.0): 82.9%
lipase activity (Table 5) (sample PRECINORM, pH 7.95): 24.0 U/L
lipase activity (Table 1) (sample PRECIPATH): 109.9 U/L
lipase activity (Table 5) (sample PRECIPATH, pH 7.0): 109.9 U/L
lipase activity relative to (1) comparative example NaDCA (Table 1) (sample PRECIPATH, pH 7.0): 85.9%
lipase activity (Table 5) (sample PRECIPATH, pH 7.95): 57.3 U/L
lipase activity (Table 5) (sample Pool 1, pH 7.0): 36.9 U/L
lipase activity (Table 5) (sample Pool 1, pH 7.95): 19.4 U/L
lipase activity (Table 5) (sample Pool 2, pH 7.0): 17.5 U/L
lipase activity (Table 5) (sample Pool 2, pH 7.95): 15.4 U/L
lipase activity (Table 5) (sample Seraclear LP, pH 7.0): 17.5 U/L
lipase activity (Table 5) (sample Seraclear LP, pH 7.95): 7.5 U/L
